Results from US8188296B2, “Gentisic acid for stabilising 123-I radiopharmaceuticals” (GE Healthcare Limited, priority 2005, dated 2012).

Legend:
Assay type in all cases: physicochemical
[1] = Radiochemical purity (TLC) of 123I-IBZM solutions stored at ambient temperature, GA vs AA stabiliser (Example 1); conditions: at the moment of use; stabiliser named as label
Experimental: ^123I-IBZM was prepared by the method of Bobeldijk et al [J. Lab. Comp. Radiopharm., 28, 1247-1256 (1990)]. A small series of ^123I-IBZM solutions was prepared: to each vial 200 μl of ^123I-IBZM in EtOH (925 MBq/cm^3) was added and subsequently 2.3 ml of aqueous phosphate buffer solution optionally containing a stabiliser, in such a way that the resulting ethanol content was 8% and the radioactive concentration at calibration time was 74 MBq/cm^3 (2 mCi/ml).
The vials were stored at ambient temperature and the radiochemical purity (RCP) was determined by thin layer chromatography (TLC) at the time of dilution with phosphate buffer and at 24 and 48 hours afterwards.

[2] = Discolouration / heat sterilisation stability of stabiliser stock solutions
Text: A preferred biocompatible carrier medium for the stabiliser stock solution comprises an aqueous solution at a pH suitable for intravenous administration. A preferred such aqueous solution is a buffer solution, most preferably phosphate buffer. When the radiopharmaceutical is ^123I-IBZM, the pH of the buffered stock solution is suitably pH 5 to 8, preferably 5.4 to 7, most preferably 5.7 to 6.3. As noted above, gentisic acid solutions tend to suffer from discoloration problems. […] The stock solutions may be prepared under non-sterile conditions, followed by terminal sterilisation using e.g. gamma-irradiation, autoclaving, dry heat or chemical treatment (e.g. with ethylene oxide). Alternatively, the stock solutions may be prepared under aseptic manufacture conditions to give the desired sterile, pyrogen-free product. Preferably the sterile stock solutions are prepared by terminal sterilisation, most preferably by autoclaving. Such autoclaving involves steam heating at over 121° C., so represents stress conditions wherein unwanted chemical reactions might be expected. […] It is therefore surprising that the lack of discolouration for gentisic acid can be maintained under such conditions.

[3] = Radiochemical purity of 123I-IBZM vs gentisic acid concentration in stock solution (Example 4, FIG. 1); conditions: 0 to 0.39% w/v gentisic acid, pH 5.8, 74 MBq/ml, room temperature
Experimental: A phosphate buffer solution (300 ml) was divided into 6 vials each of 50 ml with various amounts of gentisic acid, corresponding to w/v concentrations of 0%, 0.024%, 0.050%, 0.10%, 0.20% and 0.39%. The pH was checked, and if necessary adjusted by the addition of NaOH to obtain a pH of 5.8 (±0.1). The vials were stoppered with Teflon™ coated rubber stoppers and sterilised for 15 min at 121° C.
An ethanolic solution of ^123I-IBZM (activity concentration at REF: 925 MBq/ml (25 mCi/ml)) was divided over 6 vials and into each was added an aliquot of the 6 gentisic acid buffer solutions from step (a) to obtain a final solution with a total activity content of 185 MBq (5 mCi), at a RAC of 74 MBq/ml (2 mCi/ml) and an ethanol content of 8%. The vials were stoppered with a Teflon™ coated rubber stopper and stored at room temperature. The RCP was measured at various time points after EOS.

[4] = Radiochemical purity of 123I-mIBG in phosphate buffer with stabilisers (Example 5); conditions: compared with benzyl alcohol
Experimental: Two series of 5 vials of ^123I-mIBG solutions were prepared: to each vial an aliquot of 0.5 cm^3 of freshly prepared ^123I-mIBG in (stabiliser-free) Phosphate buffer (360 MBq/cm^3) was added and subsequently an aliquot of 2.0 cm^3 of an aqueous phosphate buffer solution containing a stabiliser as specified in Table 4 (below), followed by mixing. The final mixtures were not heat sterilized. The total activity per vial was 185 MBq with an RAC of 74 MBq/ml. The specific activity was 992 GBq/g mIBG base. Vials A1 to E1 were stored at 40° C. and vials A2 to E2 at 20° C. The RCP was determined at the EOS (end of synthesis) and at 3, 20 and 45 hours thereafter.

[5] = Radiochemical purity of 123I-IBZM solutions made with autoclaved stabiliser stock solutions (Example 3); conditions: stock solution sterilised in an autoclave at 121 °C
Experimental: Stock solutions of the stabilisers shown were prepared, purged with argon gas and then sealed under argon in a septum-sealed vial with a Teflon™ coated rubber stopper.
The solutions were sterilised by autoclaving for 15 minutes at 121° C., and then allowed to cool to ambient temperature before use.
A small series of ^123I-IBZM solutions was prepared: to each vial ^123I-IBZM in EtOH (925 MBq/cm^3) was added and subsequently an aqueous phosphate buffer solution containing a stabiliser as specified in Table 3 (below), in such a way that the resulting ethanol content was 8% and the radioactive concentration at calibration time was 74 MBq/cm^3 (2 mCi/ml). The RCP of each vial was determined 3 hours after preparation and after storage at room temperature for 51 hours.

Compound	principal radiochemical impurity (free 123I-iodide) in the 123I-IBZM preparation [1] [%]	stability to heat sterilisation (autoclaving, over 121 °C) in buffer solution ([2]; buffer solution)	stabilisation of 123I-IBZM vs stabiliser concentration (in words) [3]	stabilisation of 123I-MIBG (in words) [4]	stabilisation of 123I-IBZM (in words) [5]	discolouration of sterile solutions in aqueous buffer on storage ([2]; oxygen gas in the environment minimised)	discolouration of solutions on autoclave sterilisation ([2]; oxygen not excluded, autoclave)
O=C1O[C@H]([C@@H](O)CO)C(O)=C1O [ascorbic acid, reference compound]	4 to 5	does not withstand such heat sterilisation in buffer solution	–	–	–	–	–
O=C(O)c1cc(O)ccc1O [gentisic acid, 2,5-dihydroxybenzoic acid]	2 to 3	–	little or no additional stabilisation benefit is obtained	effective at much lower concentrations than benzyl alcohol	still an effective stabiliser	do not discolour even on storage for more than a year	visible discolouration does occur
